In the NIST ThermoML archive (doi:10.1021/je401095k):
± gives the expanded uncertainty stated by the source.

Assays:
[1] = refractive index (Na D-line) (dimensionless); conditions: 293.2 K; 101.33 kPa; Liquid; Standard Abbe refractometry
[2] = 293.2 K; 101.33 kPa; Liquid; Vibrating tube method

Row | Structure (SMILES) | refractive index [1] | mass density [2] [kg/m3]
1 | O [water] | 1.3324 ± 0.0008 | –
2 | CC(=O)CCC(C)C [5-methyl-2-hexanone] | 1.4051 ± 0.0008 | 887.92 ± 0.24
3 | O=CO [formic acid] | 1.371 ± 0.0008 | 1219.5 ± 0.42
4 | CCCC(=O)O [butanoic acid] | 1.3977 ± 0.0008 | 952.68 ± 0.23
5 | CC(=O)OCCC(C)C [3-methylbutyl ethanoate] | 1.3976 ± 0.0008 | 866.71 ± 0.24
